Data reported in the NIST ThermoML archive (doi:10.1021/je900749a).
± gives the expanded uncertainty stated by the source.

Assay: cn = amount concentration of the nth substance listed, in mol/dm3
Conditions: 300 K, Ring tensiometer

With `CC(CN1c2ccccc2Sc2ccccc21)N(C)C.Cl` (stereo not given) [promethazine hydrochloride] + O the surface tension liquid-gas (c1 = 0.002941) was 71.3 ± 1.2 mN/m, the surface tension liquid-gas (c1 = 0.005769) was 64.15 ± 1.1 mN/m and the surface tension liquid-gas (c1 = 0.01111) was 56.45 ± 0.97 mN/m. For the same compound, the surface tension liquid-gas (c1 = 0.01842) was 50.35 ± 0.88 mN/m, the surface tension liquid-gas (c1 = 0.02903) was 46.45 ± 0.81 mN/m and the surface tension liquid-gas (c1 = 0.03637) was 43.4 ± 0.77 mN/m. For the same compound, the surface tension liquid-gas (c1 = 0.04287) was 42.55 ± 0.75 mN/m, the surface tension liquid-gas (c1 = 0.04865) was 42.2 ± 0.75 mN/m and the surface tension liquid-gas (c1 = 0.05385) was 42.1 ± 0.75 mN/m. It also gave a surface tension liquid-gas (c1 = 0.05853) of 42.15 ± 0.75 mN/m.

`CN(C)CCC=C1c2ccccc2CCc2ccccc21.Cl` + O showed a surface tension liquid-gas (c1 = 0.001584) of 69.15 ± 1.2 mN/m, a surface tension liquid-gas (c1 = 0.003138) of 62.75 ± 1.1 mN/m and a surface tension liquid-gas (c1 = 0.009057) of 55.25 ± 0.95 mN/m. It also gave a surface tension liquid-gas (c1 = 0.01455) of 50.75 ± 0.88 mN/m, a surface tension liquid-gas (c1 = 0.02441) of 46.1 ± 0.81 mN/m and a surface tension liquid-gas (c1 = 0.02885) of 44.55 ± 0.79 mN/m. It also gave a surface tension liquid-gas (c1 = 0.03301) of 43.15 ± 0.76 mN/m, a surface tension liquid-gas (c1 = 0.0406) of 42.55 ± 0.75 mN/m and a surface tension liquid-gas (c1 = 0.04572) of 42.5 ± 0.75 mN/m.

`CN(C)CCCN1c2ccccc2Sc2ccc(Cl)cc21.Cl` + O gave a surface tension liquid-gas (c1 = 0.001381) of 65.7 ± 1.2 mN/m, a surface tension liquid-gas (c1 = 0.002344) of 60.5 ± 1.1 mN/m and a surface tension liquid-gas (c1 = 0.003289) of 57.15 ± 1.1 mN/m. For the same compound, the surface tension liquid-gas (c1 = 0.004762) was 53.4 ± 1 mN/m, the surface tension liquid-gas (c1 = 0.006542) was 50.5 ± 0.96 mN/m and the surface tension liquid-gas (c1 = 0.009091) was 47.15 ± 0.9 mN/m. The surface tension liquid-gas (c1 = 0.01228) was 45.2 ± 0.87 mN/m, the surface tension liquid-gas (c1 = 0.01525) was 44.15 ± 0.85 mN/m and the surface tension liquid-gas (c1 = 0.01666) was 44 ± 0.85 mN/m. It also gave a surface tension liquid-gas (c1 = 0.01803) of 44.05 ± 0.85 mN/m and a surface tension liquid-gas (c1 = 0.01936) of 44 ± 0.85 mN/m.

`CN(C)CCCN1c2ccccc2CCc2ccccc21.Cl` + O gave a surface tension liquid-gas (c1 = 0.003658) of 68.55 ± 1.2 mN/m, a surface tension liquid-gas (c1 = 0.007143) of 62.15 ± 1.1 mN/m and a surface tension liquid-gas (c1 = 0.01364) of 54.6 ± 0.94 mN/m. For the same compound, the surface tension liquid-gas (c1 = 0.01957) was 51.7 ± 0.9 mN/m, the surface tension liquid-gas (c1 = 0.03) was 47.05 ± 0.82 mN/m and the surface tension liquid-gas (c1 = 0.03889) was 43.75 ± 0.77 mN/m. It also gave a surface tension liquid-gas (c1 = 0.04287) of 43 ± 0.76 mN/m, a surface tension liquid-gas (c1 = 0.04655) of 42.3 ± 0.75 mN/m and a surface tension liquid-gas (c1 = 0.05) of 42.3 ± 0.75 mN/m. It also gave a surface tension liquid-gas (c1 = 0.05769) of 42.3 ± 0.75 mN/m.
